Measurements taken from patent US9295671B2, “Benzenesulfonamide derivatives of quinoxaline, pharmaceutical compositions thereof, and their use in methods for treating cancer” (NEUPHARMA, INC., priority 2011, dated 2016).

Tests used:
A375 cells = assay: Inhibition of cancer cell growth, MTT assay, A375; assay type: cell-based; conditions: Homo sapiens, A-375, 72 h (Table 4)
Protocol: (§1) Inhibition of cell growth by compounds was measured using MTT assay (Mosmann, T., Journal of Immunological Methods, 1983, 65, 55-63). Tumor cell lines were purchased from ATCC (American Type Culture Collection, Manassas, Va.). All cell lines were maintained in RPMI 1640 (Hyclone) supplemented with 10% fetal bovine serum (FBS, Hyclone), glutamine (2 mM, Hyclone), and antibiotics (penicillin 100 U/mL and streptomycin 50 μg/mL) at 37° C. in a humidified atmosphere of 5% CO2 in air. Taxol (as a positive control, Sigma) and compounds were dissolved in DMSO (Sigma), and the final concentration of DMSO in the medium was 1%. Tumor cells were plated in 96-well plates at densities of about 4000 cells/well of a 96-well plate and allowed to adhere/grow for 24 h. They were then treated with various concentrations of drug for 72 h. 3-(4,5-Dimethylthiazol-2-yl)-2,5-diphenyltetrazolium bromide (MTT, Sigma) was used to determine the number of viable cells at the time of compound addition and the number of cells remaining after 72 h compound exposure. The number of cells remaining after 72 h was compared to the number of viable cells at the time of compound addition by measuring the absorbance at 570 nm, allowing for the calculation of growth inhibition.
(§2) All concentrations of compounds were tested in triplicate and controls were averaged over 4 wells. IC50 was calculated by plotting the concentration of compound vs the percentage of inhibition in treated wells using GraphPad Prism 5.
(§3) The scale utilized in Table 4 is as follows: +++ less than 500 nM; ++ between 500 nM and 1 μM; and + greater than 1 μM.

BRAF [1] = target: T1, BRAF (Homo sapiens, UniProt P15056); assay: Z′-LYTE kinase assay, BRAF (Invitrogen); assay type: biochemical; conditions: Z′-LYTE method
T1 construct: purchased Invitrogen
Protocol: (§4) Inhibitory activities of compounds against BRAF or BRAF V600E were measured by Invitrogen using Z′-LYTE® Method as briefly described in the following.
(§5) 4× Test compounds are dissolved in 1% DMSO. […] ATP solutions are diluted to a 4×ATP working concentration in Kinase Buffer (50 mM HEPES pH 7.5, 0.01% BRIJ-35, 10 mM MgCl2, 1 mM EGTA).
(§6) Reaction starts by 30-second shaking of mixture consisting of 2.5 μL4× test compound, […] and 2.5 μL 4×ATP Solution on Bar-coded Corning, low volume NBS, black 384-well plate (Corning Cat. #3676). Then the mixture is incubated for 60-minute at room temperature for the kinase reaction, followed by addition of 5 μL of a 1:1024 dilution of development reagent A and 30-second plate shake. The mixture is then incubated for another 60-minute at room temperature for development reaction. Finally fluorescence is read by plate reader.

A549 cells = assay: Inhibition of cancer cell growth, MTT assay, A549; assay type: cell-based; conditions: Homo sapiens, 72 h
Protocol: as §1, §2, §3

BRAF V600E [2] = target: T2, BRAF V600E (Homo sapiens, UniProt P15056, V600E); assay: Z′-LYTE kinase assay, BRAF V600E (Invitrogen); assay type: biochemical; conditions: Z′-LYTE method
T2 construct: purchased Invitrogen
Protocol: as §4, §5, §6

BRAF V600E [3] = target: T2, BRAF V600E; assay: LanthaScreen kinase assay, BRAF V600E; assay type: biochemical; conditions: ATP 10 μM
Protocol: (§7) The inhibitory activities of compounds against BRAF or BRAF V600E protein were measured using Invitrogne's LanthaScreen™ kinase assay which is based on fluorescein-labeled MAP2K1 as a substrate. The assay procedure is described as follows.
(§8) The scale utilized in Table 3 is as follows: ++++ less than 50 nM; +++ between 50 and 100 nM; ++ between 100 nM and 1 μM; and + greater than 1 μM.

BRAF [4] = target: T1, BRAF; assay: LanthaScreen kinase assay, BRAF; assay type: biochemical; conditions: ATP 1 μM
Protocol: as §7, §8

[5] = test system: CHL-1 (human melanoma cell, BRAF wild type); assay: Inhibition of cancer cell growth, MTT or MTS assay, CHL-1; assay type: cell-based; conditions: 72 h, highest concentration 100 μM
Protocol: (§9) A375 (human melanoma cell, BRAF V600E Mutant), CHL-1 (human melanoma cell, BRAF wild type), SK-MEL-28 (human melanoma cell, BRAF V600E Mutant) and SK-MEL-31(human melanoma cell, Braf WT Mutant) were purchased from ATCC (American Type Culture Collection, Manassas, Va.). All cell lines were maintained in RPMI 1640 (Hyclone) or DMEM (Hyclone) supplemented with 10% fetal bovine serum (FBS, Hyclone), glutamine (2 mM, Hyclone), and antibiotics (penicillin 100 U/mL and streptomycin 50 μg/mL) at 37° C. in a humidified atmosphere of 5% CO2 in air.
(§10) To test IC50 of inhibition of individual compounds against each cell line, A375, SK-MEL-28and SK-MEL-31 cells were first plated in 96-well plates at densities of 3000 cells/well, and CHL-1 2500 cells/well. Cells were then incubated to allow cells to adhere and grow for 24 h. Cells were then treated with a series of concentrations of compounds for 72 h. The highest concentration of compounds was 10 μM for A375 and SK-MEL-28 cells and 100 μM for CHL-1 and SK-MEL-31 cells. Cells were then removed from the incubator and medium was removed by inverting and tapping the plates. 100 μL of MTT (0.5 mg/ml) or 10 μL or MTS was added to each well followed by an incubated at 37° C. for 4 h. Then MTT was removed and 200 μL of DMSO was added to each well, followed by reading the ODs at 570 nm after a 5 second shaking cycle in a 96-well spectrophotometer. For MTS method, MTS was not removed, and the incubated solutions were directly put in a 96-well spectrophotometer for the reading of the ODs at 492 nm.
(§11) IC50 was calculated by plotting the concentration of compound vs the percentage of inhibition in treated wells using GraphPad Prism 5. […] The scale utilized in Table 5 is as follows: +++ less than 500 nM; ++ between 500 nM and 1 μM; and + greater than 1 μM.

[6] = test system: A375 (human melanoma cell, BRAF V600E Mutant); assay: Inhibition of cancer cell growth, MTT or MTS assay, A375; assay type: cell-based; conditions: A-375, 72 h, highest concentration 10 μM (Table 5)
Protocol: as §9, §10, §11

[7] = test system: SK-MEL-28 (human melanoma cell, BRAF V600E Mutant); assay: Inhibition of cancer cell growth, MTT or MTS assay, SK-MEL-28; assay type: cell-based; conditions: 72 h, highest concentration 10 μM
Protocol: as §9, §10, §11

[8] = test system: SK-MEL-31 (human melanoma cell, Braf WT Mutant); assay: Inhibition of cancer cell growth, MTT or MTS assay, SK-MEL-31; assay type: cell-based; conditions: 72 h, highest concentration 100 μM
Protocol: as §9, §10, §11

T2 sequence (P15056 whole entry V600E): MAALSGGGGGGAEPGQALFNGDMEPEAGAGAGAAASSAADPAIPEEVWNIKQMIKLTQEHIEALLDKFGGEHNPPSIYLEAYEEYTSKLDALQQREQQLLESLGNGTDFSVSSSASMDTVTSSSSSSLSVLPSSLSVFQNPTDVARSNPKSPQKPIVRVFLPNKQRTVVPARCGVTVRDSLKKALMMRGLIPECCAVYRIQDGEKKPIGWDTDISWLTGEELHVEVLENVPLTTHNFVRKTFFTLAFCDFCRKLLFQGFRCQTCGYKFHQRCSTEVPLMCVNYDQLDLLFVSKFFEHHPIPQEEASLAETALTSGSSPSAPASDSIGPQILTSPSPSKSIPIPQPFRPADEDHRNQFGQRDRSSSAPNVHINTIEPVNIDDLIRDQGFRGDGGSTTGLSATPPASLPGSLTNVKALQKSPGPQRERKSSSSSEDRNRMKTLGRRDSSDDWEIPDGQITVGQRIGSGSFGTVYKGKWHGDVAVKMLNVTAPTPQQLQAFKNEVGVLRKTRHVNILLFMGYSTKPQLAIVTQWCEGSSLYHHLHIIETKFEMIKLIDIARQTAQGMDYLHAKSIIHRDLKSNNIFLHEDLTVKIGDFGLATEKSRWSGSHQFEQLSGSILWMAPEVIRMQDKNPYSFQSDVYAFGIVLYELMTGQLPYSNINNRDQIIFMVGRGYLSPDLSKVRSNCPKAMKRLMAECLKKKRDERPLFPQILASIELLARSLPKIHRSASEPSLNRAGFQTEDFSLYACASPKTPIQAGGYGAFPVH
T1 sequence (P15056 whole entry): as the sequence (P15056 whole entry V600E) above, with E600V counted along it

How did the IC50 (A375 cells) turn out when `CCCS(=O)(=O)Nc1cc(F)c(F)c(C(=O)c2ccc3ncc(N(C)CCN(C)C)nc3c2)c1F` [Compound C13, N-(3-(3-((2-(dimethylamino)ethyl)(methyl)amino)quinoxaline-6-carbonyl)-2,4,5-trifluorophenyl)propane-1-sulfonamide] was run?
The IC50 was > 1 µM.

What about the inhibition at 1 µM (BRAF [1]) of the same compound?
Its inhibition at 1 µM is > 89%.

And the IC50 (A549 cells)?
The IC50 was > 1 µM.

And the inhibition at 1 µM (BRAF V600E [2])?
The inhibition at 1 µM was > 89%.

How did the IC50 (A375 cells) turn out when `CCCS(=O)(=O)Nc1cc(F)c(F)c(C(=O)c2ccc3ncc(Cl)nc3c2)c1F` [Compound C11, N-(3-(3-chloroquinoxaline-6-carbonyl)-2,4,5-trifluorophenyl)propane-1-sulfonamide] was run?
The IC50 was > 1 µM.

What about the inhibition at 1 µM (BRAF [1]) of the same compound?
Its inhibition at 1 µM is 70 to 89%.

What about the IC50 (A549 cells) of the same compound?
Its IC50 is > 1 µM.

What about the inhibition at 1 µM (BRAF V600E [2]) of the same compound?
Its inhibition at 1 µM is > 89%.

What does the source list for `CCCS(=O)(=O)Nc1cc(F)c(F)c(C(=O)c2ccc3ncc(OC)nc3c2)c1F` [Compound C10, N-(2,4,5-trifluoro-3-(3-methoxyquinoxaline-6-carbonyl)phenyl)propane-1-sulfonamide]?
IC50 (A375 cells): < 0.5 µM; inhibition at 1 µM (BRAF [1]): > 89%; IC50 (A549 cells): > 1 µM; inhibition at 1 µM (BRAF V600E [2]): 70 to 89%

With `CCCS(=O)(=O)Nc1cc(F)c(F)c(C(=O)c2ccc3ncc(N4CCOCC4)nc3c2)c1` [Compound C37, N-(3,4-difluoro-5-(3-morpholinoquinoxaline-6-carbonyl)phenyl)propane-1-sulfonamide] as the compound, how does the IC50 (BRAF V600E [3]) read?
Its IC50 is 0.05 to 0.1 µM.

And the IC50 (A375 cells)?
Its IC50 is > 1 µM.

What about the IC50 (BRAF [4]) of the same compound?
The IC50 was 0.1 to 1 µM.

And the IC50 (A549 cells)?
The IC50 was > 1 µM.

What about the inhibition at 1 µM (BRAF V600E [2]) of the same compound?
Its inhibition at 1 µM is 70 to 89%.

How did the IC50 (BRAF V600E [3]) turn out when `CCCS(=O)(=O)Nc1cc(F)cc(C(=O)c2ccc3ncc(N4CCOCC4)nc3c2)c1` [Compound C18, N-(3-fluoro-5-(3-morpholinoquinoxaline-6-carbonyl)phenyl)propane-1-sulfonamide] was run?
The IC50 was < 0.05 µM.

What about the IC50 (A375 cells) of the same compound?
Its IC50 is > 1 µM.

What about the IC50 (BRAF [4]) of the same compound?
Its IC50 is 0.05 to 0.1 µM.

And the IC50 (A549 cells)?
Its IC50 is > 1 µM.

What about the inhibition at 1 µM (BRAF V600E [2]) of the same compound?
Its inhibition at 1 µM is < 70%.

How did the IC50 (BRAF V600E [3]) turn out when `CCCS(=O)(=O)Nc1ccc(F)c(C(=O)c2ccc3nccnc3c2)c1Cl` [Compound C06, N-(2-chloro-4-fluoro-3-(quinoxaline-6-carbonyl)phenyl)propane-1-sulfonamide] was run?
The IC50 was < 0.05 µM.

And the IC50 (BRAF [4])?
Its IC50 is 0.1 to 1 µM.

What about the inhibition at 1 µM (BRAF [1]) of the same compound?
Its inhibition at 1 µM is 70 to 89%.

And the “IC50 CHL-1” value [5]?
The value was “No inhibition”.

And the inhibition at 1 µM (BRAF V600E [2])?
The inhibition at 1 µM was > 89%.

And the IC50 [6]?
The IC50 was < 0.5 µM.

Which IC50 (A375 cells) does the source give for `CCCS(=O)(=O)Nc1cc(F)c(SC)c(C(=O)c2ccc3nccnc3c2)c1F` [Compound C08, N-(2,5-difluoro-4-(methylthio)-3-(quinoxaline-6-carbonyl)phenyl)propane-1-sulfonamide] here?
The IC50 was > 1 µM.

And the inhibition at 1 µM (BRAF [1])?
The inhibition at 1 µM was < 70%.

What about the IC50 (A549 cells) of the same compound?
The IC50 was > 1 µM.

And the inhibition at 1 µM (BRAF V600E [2])?
Its inhibition at 1 µM is < 70%.

Which results are given for `CCCS(=O)(=O)Nc1ccc(F)c(C(=O)c2ccc3ncc(OC)nc3c2)c1F` [Compound C03, N-(2,4-difluoro-3-(3-methoxyquinoxaline-6-carbonyl)phenyl)propane-1-sulfonamide]?
IC50 (A375 cells): > 1 µM; inhibition at 1 µM (BRAF [1]): 70 to 89%; IC50 (A549 cells): > 1 µM; inhibition at 1 µM (BRAF V600E [2]): > 89%

`CCCS(=O)(=O)Nc1cc(F)c(F)c(C(=O)c2ccc3ncc(-c4ccc(Cl)cc4)nc3c2)c1F` [Compound C12, N-(3-(3-(4-chlorophenyl)quinoxaline-6-carbonyl)-2,4,5-trifluorophenyl)propane-1-sulfonamide] was tested. Which IC50 [7] did it give?
The IC50 was 0.5 to 1 µM.

What about the inhibition at 1 µM (BRAF [1]) of the same compound?
Its inhibition at 1 µM is 70 to 89%.

What about the “IC50 CHL-1” value [5] of the same compound?
Its value is “No inhibition”.

What about the “IC50 SK-MEL-31” value [8] of the same compound?
The value was “No inhibition”.

And the inhibition at 1 µM (BRAF V600E [2])?
Its inhibition at 1 µM is > 89%.

And the IC50 [6]?
Its IC50 is < 0.5 µM.
